In ChEMBL document CHEMBL5331042, “Azole inhibitors of mushroom and human tyrosinases: Current advances and prospects of drug development for melanogenic dermatological disorders” (Eur J Med Chem, 2022):
Values belong to the molecule of their own block, whether it stands above or below them. Peptide text beside a SMILES is read from it.

Tests used:
Mushroom tyrosinase [1] = molecular target: T1, Mushroom tyrosinase (Agaricus bisporus, UniProt O42713+Q00024+C7FF04+C7FF05); experiment: Inhibition of mushroom tyrosinase incubated for 10 mins by spectrophotometric analysis
Mushroom tyrosinase [2] = molecular target: T1, Mushroom tyrosinase; experiment: Binding affinity to mushroom tyrosinase assessed as inhibition constant incubated for 10 mins by spectrophotometric analysis
Tyrosinase [3] = molecular target: T2, Tyrosinase (Homo sapiens, UniProt P14679); experiment: Inhibition of human His-tagged tyrosinase CD expressed in HEK293 cells assessed as inhibition of melanin production using L-DOPA as substrate; type: cell-based
T2 sequence (P14679 whole entry): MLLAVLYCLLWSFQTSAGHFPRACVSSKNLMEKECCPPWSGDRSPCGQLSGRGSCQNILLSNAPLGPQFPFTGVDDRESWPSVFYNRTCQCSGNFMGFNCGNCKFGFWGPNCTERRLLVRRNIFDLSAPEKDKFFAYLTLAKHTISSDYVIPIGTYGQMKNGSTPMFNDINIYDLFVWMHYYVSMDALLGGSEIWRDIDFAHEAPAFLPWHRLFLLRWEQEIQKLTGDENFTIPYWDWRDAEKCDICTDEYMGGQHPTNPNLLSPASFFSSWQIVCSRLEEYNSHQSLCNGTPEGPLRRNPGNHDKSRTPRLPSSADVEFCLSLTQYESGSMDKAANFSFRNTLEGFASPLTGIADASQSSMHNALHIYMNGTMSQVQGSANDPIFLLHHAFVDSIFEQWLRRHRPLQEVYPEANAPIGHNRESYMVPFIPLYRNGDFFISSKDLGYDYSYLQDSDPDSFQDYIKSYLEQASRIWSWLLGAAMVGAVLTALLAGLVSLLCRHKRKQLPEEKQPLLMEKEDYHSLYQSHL

Tyrosinase [4] = molecular target: T2, Tyrosinase; experiment: Inhibition of human tyrosinase using L-DOPA as substrate incubated for 10 to 20 mins by MBTH dye based assay
Mushroom tyrosinase [5] = molecular target: T1, Mushroom tyrosinase; experiment: Inhibition of mushroom tyrosinase using L-DOPA as substrate preincubated for 10 mins followed by substrate addition and measured after 20 mins by absorbance based analysis
[6] = Cytotoxicity against mouse B16-F10 cells assessed as inhibition of cell growth measured after 48 hrs by MTT assay; type: toxicity, cell-based
Mushroom tyrosinase [7] = molecular target: T1, Mushroom tyrosinase; experiment: Binding affinity to mushroom tyrosinase assessed as inhibition constant using L-DOPA as substrate preincubated for 10 mins followed by substrate addition by absorbance based analysis
Mushroom tyrosinase [8] = molecular target: T1, Mushroom tyrosinase; experiment: Inhibition of mushroom tyrosinase using L-DOPA as substrate preincubated for 10 mins followed by substrate addition by absorbance based analysis
[9] = Cytotoxicity against mouse B16-F10 cells assessed as inhibition of cell growth at 8 uM measured after 24 hrs by MTT assay relative to control; type: toxicity, cell-based
Mushroom tyrosinase [10] = molecular target: T1, Mushroom tyrosinase; experiment: Binding affinity to mushroom tyrosinase assessed as inhibition constant using L-DOPA as substrate preincubated for 10 mins followed by substrate addition and measured after 20 mins
Mushroom tyrosinase [11] = molecular target: T1, Mushroom tyrosinase; experiment: Inhibition of mushroom tyrosinase using L-DOPA as substrate preincubated for 10 mins followed by substrate addition and measured after 20 mins
Mushroom tyrosinase [12] = molecular target: T1, Mushroom tyrosinase; experiment: Inhibition of mushroom tyrosinase
[13] = molecular target: Mushroom tyrosinase (Agaricus bisporus) (UniProt O42713+Q00024+C7FF04+C7FF05); experiment: Inhibition of mushroom tyrosinase transfected in mouse B16-F10 cells at 25 uM using L-tyrosine as substrate relative to control; type: cell-based
[14] = Cytotoxicity against mouse B16-F10 cells assessed as inhibition of cell growth upto 20 uM measured after 24 hrs by absorbance based assay relative to control; type: toxicity
Mushroom tyrosinase [15] = molecular target: T1, Mushroom tyrosinase; experiment: Inhibition of mushroom tyrosinase using L-DOPA as substrate preincubated for 20 mins followed by substrate addition by absorbance based analysis
Mushroom tyrosinase [16] = molecular target: T1, Mushroom tyrosinase; experiment: Inhibition of mushroom tyrosinase using L-tyrosine as substrate preincubated for 20 mins followed by substrate addition by absorbance based analysis

SMILES: CCCCCn1nc(-c2ccccc2)n(CC(=O)NNC(=O)Nc2ccccc2C(F)(F)F)c1=O
IC50 (Mushroom tyrosinase [1]): 0.00166 µM | Ki (Mushroom tyrosinase [2]): 0.012 µM

SMILES: CCCCc1ccc(O)cc1O [RUCINOL]
IC50 (Tyrosinase [3]): 13.5 µM

SMILES: CCCCCn1nc(-c2ccccc2)n(CC(=O)NNC(=S)Nc2ccccc2C(F)(F)F)c1=O
IC50 (Mushroom tyrosinase [1]): 5.62 µM | Ki (Mushroom tyrosinase [2]): 0.122 µM

SMILES: Oc1ccc(/C=N/c2nnc(S)s2)c(O)c1
Ki (Mushroom tyrosinase [7]): 0.075 µM | IC50 (Mushroom tyrosinase [8]): 0.25 µM

SMILES: O=c1cc(CO)occ1O [KOJIC ACID]
inhibition at 24 h, 8 µM [9]: 94%

SMILES: COc1ccccc1-n1c(SCC(=O)Nc2ccc(Br)cc2)nnc1-c1ccccc1
Ki (Mushroom tyrosinase [10]): 0.007 µM | IC50 (Mushroom tyrosinase [11]): 0.0048 µM

SMILES: Oc1ccc(O)cc1 [HYDROQUINONE]
IC50 (Tyrosinase [3]): 15 µM

SMILES: O=C1/C(=C/c2ccccc2O)OC(=S)N1c1ccccc1
inhibition [13]: 65% | IC50 (Mushroom tyrosinase [12]): 11.18 µM | inhibition at 24 h, up to 20 µM [14]: ~65%

SMILES: O=C1/C(=C/c2ccc(O)cc2O)OC(=S)N1c1ccccc1
inhibition [13]: 55% | IC50 (Mushroom tyrosinase [12]): 4.7 µM | inhibition at 24 h, up to 20 µM [14]: ~55%

SMILES: NC(=S)N/N=C/c1ccc(OCc2cn(CC(=O)Nc3ccc(Cl)cc3)nn2)cc1
IC50 (Mushroom tyrosinase [15]): 0.14 µM | inhibition at 24 h, 8 µM [9]: 69.6%

SMILES: O=C1OC(c2ccccc2Br)=NC(=S)C1c1nn[nH]n1 (stereo not drawn)
Ki (Mushroom tyrosinase [10]): 0.0003 µM | IC50 (Mushroom tyrosinase [5]): 0.037 µM

SMILES: COc1cc(/C=N/c2nnc(S)s2)ccc1O
Ki (Mushroom tyrosinase [7]): 0.038 µM | IC50 (Mushroom tyrosinase [8]): 0.036 µM

SMILES: COc1cc(C2CC(c3cc4ccccc4oc3=O)=NN2c2nc(-c3ccc(Br)cc3)cs2)ccc1OCc1ccccc1 (stereo not drawn)
Ki (Mushroom tyrosinase [7]): 0.0086 µM | IC50 (Mushroom tyrosinase [8]): 0.00458 µM

SMILES: NC(=S)N/N=C/c1ccc(OCc2cn(CC(=O)Nc3cccc(Br)c3)nn2)cc1
IC50 (Mushroom tyrosinase [15]): 0.21 µM | inhibition at 24 h, 8 µM [9]: ≤ 70%

Further lines, with some results ahead:

IC50 (Tyrosinase [4]): 1.4 µM | IC50 (Tyrosinase [3]): 0.9 µM
SMILES: CC(C)C(=O)Nc1nc(-c2ccc(O)cc2O)cs1

IC50 (Mushroom tyrosinase [5]): 0.06 µM
SMILES: O=C1C=C(Cn2cc(COc3cccc4ccccc34)nn2)C(=O)C=C1O
IC50 at 48 h [6]: 65 µM

IC50 (Mushroom tyrosinase [12]): 0.6 µM
SMILES: CC(C)[C@@H]1NC(=O)[C@@H]2CCCN2C(=O)[C@H](Cc2ccc(O)cc2)NC(=O)[C@@H]2CCCN2C1=O (cyclo(PVPY))

IC50 (Mushroom tyrosinase [12]): 1.5 µM
SMILES: CC(C)[C@H]1C(=O)N2CCC[C@H]2C(=O)N[C@@H](Cc2ccc(O)cc2)C(=O)N2CCC[C@H]2c2cn1nn2

IC50 (Tyrosinase [3]): 1200 µM
SMILES: C[C@@H](O)CCc1ccc(O)cc1

IC50 (Mushroom tyrosinase [12]): 0.5 µM
SMILES: CC(C)[C@@H]1NC(=O)[C@@H]2CCCN2C(=O)[C@H](Cc2ccc(O)cc2)n2cc(nn2)[C@@H]2CCCN2C1=O

IC50 (Mushroom tyrosinase [15]): 0.43 µM | IC50 (Mushroom tyrosinase [16]): 0.83 µM
SMILES: NC(=S)N/N=C/c1ccc(OCc2cn(CC(=O)NCc3ccc(F)cc3)nn2)cc1

IC50 (Mushroom tyrosinase [12]): 1.6 µM
SMILES: CC(C)[C@H]1C(=O)N2CCC[C@H]2c2cn(nn2)[C@@H](Cc2ccc(O)cc2)C(=O)N2CCC[C@H]2c2cn1nn2

IC50 (Mushroom tyrosinase [5]): 0.3 µM
SMILES: O=C1C=C(Cn2cc(COc3ccc4ccccc4c3)nn2)C(=O)C=C1O
IC50 at 48 h [6]: 67.5 µM

IC50 (Mushroom tyrosinase [15]): 0.17 µM | IC50 (Mushroom tyrosinase [16]): 0.25 µM
SMILES: NC(=S)N/N=C/c1ccc(OCc2cn(CC(=O)NCc3ccccc3)nn2)cc1
inhibition at 24 h, 8 µM [9]: 39.8%
